Consider seven compounds from patent publication US20110086759A1, “CHEMICAL COMPOUNDS” (SYNGENTA CROP PROTECTION, INC., priority 2007, published 2011).

Format in all cases: in vivo
For assay [1], the system named is Alopecurus myosuroides (ALOMY). In words: Pre-emergence biological efficacy, glasshouse pot test. Conditions: 312 h. The essentials: (§1)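 Damage was rated on a 0–100 scale 13 days after treatment, with plants kept at 24/16° C, 14 h light and 65% humidity. The pre-emergence spray, at 1000 or 250 g/ha in acetone/water 50:50 with 0.5% Tween 20, was applied one day after sowing.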

Assay [2] relates to Amaranthus retoflexus (AMARE). The description is as above. Conditions: Amaranthus retroflexus, 312 h. The essentials: as §1
The subject of assay [3] is Echinochloa crus-galli (ECHCG). Described as above. The conditions noted are these: 312 h. The essentials: as §1
For assay [4], the system named is Ipomea hederaceae (IPOHE). The description is as above. The conditions noted are these: Ipomoea hederacea, 312 h. In short, it runs like this:
as §1

Assay [5] relates to Setaria faberi (SETFA). The description is as above. The conditions noted are these: 312 h. The essentials:
as §1

Assay [6] has as its system Solanum nigrum (SOLNI). The description is as above. The conditions noted are these: 312 h. The essentials:
as §1

Assay [7] concerns Alopecurus myosuroides (ALOMY). In words: Post-emergence biological efficacy, glasshouse pot test. Conditions: 312 h. In short, it runs like this: (§2)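 Scored 13 days after spraying on a 0 (no damage) to 100 (total damage) scale. Treatment was a post-emergence spray at 1000 or 250 g/ha, from acetone/water 50:50 plus 0.5% Tween 20, onto 8-day-old plants in soil pots. Growth at 24/16° C, 14 h photoperiod, 65% humidity, watered twice daily.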

Assay [8] concerns Amaranthus retoflexus (AMARE). The assay is described as above. The conditions noted are these: Amaranthus retroflexus, 312 h. In short, it runs like this:
as §2

Assay [9] deals with Echinochloa crus-galli (ECHCG). The assay is described as above. The conditions noted are these: 312 h. In short, it runs like this:
as §2

Assay [10] has as its system Ipomea hederaceae (IPOHE). Described as above. The conditions noted are these: Ipomoea hederacea, 312 h. In short, it runs like this: as §2
For assay [11], the system named is Setaria faberi (SETFA). Described as above. The conditions noted are these: 312 h. The essentials: as §2
The subject of assay [12] is Solanum nigrum (SOLNI). The description is as above. The conditions noted are these: 312 h. In short, it runs like this: as §2
The mark [13] stands for this setting: pre-emergence, 1,000 g/ha, evaluated after 13 days (100=total damage; 0=no damage), read-out: Percentage damage ALOMY.
[14] abbreviates: pre-emergence, 1,000 g/ha, evaluated after 13 days (100=total damage; 0=no damage), read-out: Percentage damage AMARE.
Where [15] appears, read: pre-emergence, 1,000 g/ha, evaluated after 13 days (100=total damage; 0=no damage), read-out: Percentage damage ECHCG.
[16] abbreviates: pre-emergence, 1,000 g/ha, evaluated after 13 days (100=total damage; 0=no damage), read-out: Percentage damage IPOHE.
The mark [17] stands for this setting: pre-emergence, 1,000 g/ha, evaluated after 13 days (100=total damage; 0=no damage), read-out: Percentage damage SETFA.
Setting [18] is: pre-emergence, 1,000 g/ha, evaluated after 13 days (100=total damage; 0=no damage), read-out: Percentage damage SOLNI.
Where [19] appears, read: post-emergence, 1,000 g/ha, evaluated after 13 days (100=total damage; 0=no damage), read-out: Percentage damage caused to weed species, ALOMY.
The mark [20] stands for this setting: post-emergence, 1,000 g/ha, evaluated after 13 days (100=total damage; 0=no damage), read-out: Percentage damage caused to weed species, AMARE.
Setting [21] is: post-emergence, 1,000 g/ha, evaluated after 13 days (100=total damage; 0=no damage), read-out: Percentage damage caused to weed species, ECHCG.
Where [22] appears, read: post-emergence, 1,000 g/ha, evaluated after 13 days (100=total damage; 0=no damage), read-out: Percentage damage caused to weed species, IPOHE.
[23] abbreviates: post-emergence, 1,000 g/ha, evaluated after 13 days (100=total damage; 0=no damage), read-out: Percentage damage caused to weed species, SETFA.
Setting [24] is: post-emergence, 1,000 g/ha, evaluated after 13 days (100=total damage; 0=no damage), read-out: Percentage damage caused to weed species, SOLNI.

Structures are written as SMILES.

For the compound `COC(=O)c1nc(C2CC2)nc(NCc2cccc(F)c2F)c1Cl` [Compound 4-96, 5-Chloro-2-cyclopropyl-4-(2,3-difluorophenyl-methylamino)-6-methoxycarbonyl-pyrimidine], the pest or weed control at 1000 g/ha was 10% in assay [1] (setting [13]); 60% in assay [2] (setting [14]); 20% in assay [3] (setting [15]); 50% in [4] (setting [16]); 30% in the assay with Setaria faberi (SETFA) [5] (setting [17]); 60% in the assay on Solanum nigrum (SOLNI) [6] (setting [18]). The pest or weed control at 1000 g/ha in [7] (setting [19]) was found to be 20%; in assay [8] (setting [20]) it was 100%; in assay [9] (setting [21]), 80%; in [10] (setting [22]) it was 100%; in the assay on Setaria faberi (SETFA) [11] (setting [23]) it was 90%; in the assay with Solanum nigrum (SOLNI) [12] (setting [24]), 100%.

On to `COC(=O)c1nc(C2CC2)nc(NC2(c3ccc(Cl)cc3Cl)CC2)c1Cl` [Compound 4-6], for which the pest or weed control at 1000 g/ha turned out to be 0% in assay [1] (setting [13]); 40% in assay [2] (setting [14]); 0% in assay [3] (setting [15]); 10% in assay [4] (setting [16]); 0% in the assay on Setaria faberi (SETFA) [5] (setting [17]); 20% in the assay with Solanum nigrum (SOLNI) [6] (setting [18]). The pest or weed control at 1000 g/ha came out at 20% in assay [7] (setting [19]); 100% in assay [8] (setting [20]); 20% in assay [9] (setting [21]); 60% in assay [10] (setting [22]); 0% in the assay on Setaria faberi (SETFA) [11] (setting [23]); 40% in the assay on Solanum nigrum (SOLNI) [12] (setting [24]).

On to `COC(=O)c1nc(C2CC2)nc(NCCc2cc(C(F)(F)F)cc(Cl)n2)c1Cl` [Compound 4-229, 5-Chloro-4-[2-(6-chloro-4-trifluoromethyl-pyrid-2-yl)ethylamino]-2-cyclopropyl-6-methoxycarbonyl-pyrimidine], for which the pest or weed control at 1000 g/ha in assay [1] (setting [13]) came out at 0%; in assay [2] (setting [14]) it was 30%; in assay [3] (setting [15]), 0%; in assay [4] (setting [16]), 20%; with Setaria faberi (SETFA) [5] (setting [17]), 10%; in the assay with Solanum nigrum (SOLNI) [6] (setting [18]), 20%. Moreover, the pest or weed control at 1000 g/ha in assay [7] (setting [19]) was 10%; in assay [8] (setting [20]) it was 100%; in assay [9] (setting [21]), 20%; in assay [10] (setting [22]), 60%; in the assay with Setaria faberi (SETFA) [11] (setting [23]), 70%; with Solanum nigrum (SOLNI) [12] (setting [24]) it was 90%.

As to `CCOc1ccc(CN(C)c2nc(C3CC3)nc(C(=O)OC)c2Cl)cc1OCC` [Compound 5-114, 5-Chloro-2-cyclopropyl-4-[N-(3,4-diethoxy-phenylmethyl)-N-methyl-amino]-6-methoxycarbonyl-pyrimidine], the pest or weed control at 1000 g/ha worked out at 0% in assay [1] (pre-emergence, rate 1,000 g/ha, evaluated after 13 days (100=total damage to plant; 0=no damage), read-out: Percentage damage caused to weed species, ALOMY); 70% in assay [2] (pre-emergence, rate 1,000 g/ha, evaluated after 13 days (100=total damage to plant; 0=no damage), read-out: Percentage damage caused to weed species, AMARE); 0% in assay [3] (pre-emergence, rate 1,000 g/ha, evaluated after 13 days (100=total damage to plant; 0=no damage), read-out: Percentage damage caused to weed species, ECHCG); 40% in assay [4] (pre-emergence, rate 1,000 g/ha, evaluated after 13 days (100=total damage to plant; 0=no damage), read-out: Percentage damage caused to weed species, IPOHE); 20% in the assay with Setaria faberi (SETFA) [5] (pre-emergence, rate 1,000 g/ha, evaluated after 13 days (100=total damage to plant; 0=no damage), read-out: Percentage damage caused to weed species, SETFA); 20% in the assay with Solanum nigrum (SOLNI) [6] (pre-emergence, rate 1,000 g/ha, evaluated after 13 days (100=total damage to plant; 0=no damage), read-out: Percentage damage caused to weed species, SOLNI). In addition, the pest or weed control at 1000 g/ha in assay [7] (Rate 1,000 g/ha, post-emergence spray, evaluated after 13 days (100=total damage to plant; 0=no damage to plant), read-out: Percentage damage caused to weed species, post-emergence, ALOMY) is 10%; in assay [8] (Rate 1,000 g/ha, post-emergence spray, evaluated after 13 days (100=total damage to plant; 0=no damage to plant), read-out: Percentage damage caused to weed species, post-emergence, AMARE) it was 100%; in assay [9] (Rate 1,000 g/ha, post-emergence spray, evaluated after 13 days (100=total damage to plant; 0=no damage to plant), read-out: Percentage damage caused to weed species, post-emergence, ECHCG) it was 20%; in assay [10] (Rate 1,000 g/ha, post-emergence spray, evaluated after 13 days (100=total damage to plant; 0=no damage to plant), read-out: Percentage damage caused to weed species, post-emergence, IPOHE), 70%; with Setaria faberi (SETFA) [11] (Rate 1,000 g/ha, post-emergence spray, evaluated after 13 days (100=total damage to plant; 0=no damage to plant), read-out: Percentage damage caused to weed species, post-emergence, SETFA), 40%; in the assay with Solanum nigrum (SOLNI) [12] (Rate 1,000 g/ha, post-emergence spray, evaluated after 13 days (100=total damage to plant; 0=no damage to plant), read-out: Percentage damage caused to weed species, post-emergence, SOLNI), 80%.

Consider `COC(=O)c1nc(C2CC2)nc(NCC2CCC=CO2)c1Cl` (stereo not drawn) [Compound 4-56, 5-Chloro-2-cyclopropyl-4-[(3,4-dihydro-2H-pyran-2-yl)methylamino]-6-methoxy-carbonylpyrimidine], for which the pest or weed control at 1000 g/ha in [1] (setting [13]) was found to be 40%; in assay [2] (setting [14]), 100%; in [3] (setting [15]) it was 30%; in assay [4] (setting [16]), 100%; with Setaria faberi (SETFA) [5] (setting [17]), 20%; with Solanum nigrum (SOLNI) [6] (setting [18]), 90%. For the same compound, the pest or weed control at 1000 g/ha in [7] (setting [19]) came out at 20%; in assay [8] (setting [20]) it was 100%; in [9] (setting [21]), 30%; in assay [10] (setting [22]) it was 80%; in the assay on Setaria faberi (SETFA) [11] (setting [23]), 40%; in the assay with Solanum nigrum (SOLNI) [12] (setting [24]) it was 80%.

Turning to `CCOC(=O)[C@H](CSc1ccccc1)Nc1nc(C2CC2)nc(C(=O)OC)c1Cl` [4-292 (R), 5-Chloro-2-cyclopropyl-4-[(1R)-1-ethoxycarbonyl-2-phenylthio-ethylamino]-6-methoxycarbonyl-pyrimidine], the pest or weed control at 1000 g/ha in [1] (setting [13]) was determined as 20%; in assay [2] (setting [14]) it was 100%; in assay [3] (setting [15]) it was 20%; in assay [4] (setting [16]), 100%; in the assay with Setaria faberi (SETFA) [5] (setting [17]), 10%; with Solanum nigrum (SOLNI) [6] (setting [18]), 80%. Also, the pest or weed control at 1000 g/ha in [7] (setting [19]) amounted to 20%; in [8] (setting [20]), 100%; in assay [9] (setting [21]), 30%; in assay [10] (setting [22]) it was 60%; in the assay with Setaria faberi (SETFA) [11] (setting [23]), 50%; in the assay with Solanum nigrum (SOLNI) [12] (setting [24]), 70%.

For `COC(=O)c1nc(C2CC2)nc(NC(CO)Cc2ccc(Cl)cc2)c1Cl` (stereo not drawn) [Compound 4-274, 5-Chloro-4-[2-(4-chlorophenyl)-1-hydroxymethyl-ethylamino]-2-cyclopropyl-6-methoxycarbonyl-pyrimidine], the pest or weed control at 1000 g/ha in assay [1] (setting [13]) was 40%; in [2] (setting [14]) it was 60%; in assay [3] (setting [15]), 30%; in assay [4] (setting [16]) it was 80%; with Setaria faberi (SETFA) [5] (setting [17]), 40%; in the assay with Solanum nigrum (SOLNI) [6] (setting [18]), 80%. Also, the pest or weed control at 1000 g/ha in assay [7] (setting [19]) amounted to 30%; in assay [8] (setting [20]), 100%; in assay [9] (setting [21]), 20%; in [10] (setting [22]), 50%; in the assay with Setaria faberi (SETFA) [11] (setting [23]) it was 30%; in the assay on Solanum nigrum (SOLNI) [12] (setting [24]) it was 80%.
